The test system of one assay is A2780 cells. Put plainly: In-vitro cell proliferation assay (SRB), A2780 cells.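 Also: viable cell number read as SRB absorbance, background from media-only wells subtracted, IC50 interpolated from percent inhibition at two bracketing compound concentrations.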 It counts as cell-based. The conditions noted are these: A2780 cells, 72 hours, SRB, read-out: A2780 IC50.
The next assay concerns the target NAMPT (Homo sapiens (Human), UniProt P43490). Put plainly: NAMPT biochemical inhibition assay (NMN quantified by mass spectrometry). The conditions noted are these: NAMPT biochemical inhibition; read-out: Biochem IC50.

pIC50: −log10 of the molar value. Where two headings read alike, the source gives them in different places. Some results are limits rather than exact numbers.

NAMPT, sequence (P43490 whole entry): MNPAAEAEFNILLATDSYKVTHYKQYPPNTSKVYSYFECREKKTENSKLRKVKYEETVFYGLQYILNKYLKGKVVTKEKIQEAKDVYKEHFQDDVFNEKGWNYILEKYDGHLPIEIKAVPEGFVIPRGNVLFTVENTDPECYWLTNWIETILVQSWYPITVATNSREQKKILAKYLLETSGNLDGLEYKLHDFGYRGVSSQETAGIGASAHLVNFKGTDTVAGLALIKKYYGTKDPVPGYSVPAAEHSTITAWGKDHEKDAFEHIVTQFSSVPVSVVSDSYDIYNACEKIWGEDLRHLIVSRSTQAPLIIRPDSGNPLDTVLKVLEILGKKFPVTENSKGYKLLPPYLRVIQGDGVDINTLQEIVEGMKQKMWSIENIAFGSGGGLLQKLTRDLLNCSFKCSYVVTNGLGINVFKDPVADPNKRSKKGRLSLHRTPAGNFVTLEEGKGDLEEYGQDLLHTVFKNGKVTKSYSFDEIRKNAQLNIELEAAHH

In the case of `O=C(NCc1cccnc1)Nc1ccc(S(=O)(=O)Nc2cccc(C(=O)c3ccccc3)c2)cc1` [1-{4-[(3-benzoylphenyl)sulfamoyl]phenyl}-3-(pyridin-3-ylmethyl)urea], the pIC50 with A2780 cells (Homo sapiens, A2780, 72 h) was 5.00 to 6.00; at NAMPT, 8.36.

Take `N#Cc1cccc(S(=O)(=O)c2ccc(NC(=O)NCc3cccnc3)cc2)c1` [1-{4-[(3-cyanobenzene)sulfonyl]phenyl}-3-(pyridin-3-ylmethyl)urea]: the pIC50 in the assay with A2780 cells (Homo sapiens, A2780, 72 h) was 6.00 to 7.00; at NAMPT it was 8.10.

As for `O=C(NCc1cccnc1)Nc1ccc(S(=O)(=O)c2cccc(-c3ccccc3)c2)cc1` [1-{4-[(3-phenylbenzene)sulfonyl]phenyl}-3-(pyridin-3-ylmethyl)urea], the pIC50 in the assay with A2780 cells (Homo sapiens, A2780, 72 h) was 6.00 to 7.00; at NAMPT it was 8.17.

`N#Cc1ccc(S(=O)(=O)c2ccc(NC(=O)NCc3cccnc3)cc2)cc1` [1-{4-[(4-cyanobenzene)sulfonyl]phenyl}-3-(pyridin-3-ylmethyl)urea]: the negative logarithm of the IC50 (pIC50) is 6.00 to 7.00 with A2780 cells (Homo sapiens, A2780, 72 h) and 8.12 on NAMPT.

Turning to `O=C(NCc1cccnc1)Nc1ccc(S(=O)(=O)c2ccc(-c3ccccc3)cc2)cc1` [1-{4-[(4-phenylbenzene)sulfonyl]phenyl}-3-(pyridin-3-ylmethyl)urea], the pIC50 was 6.00 to 7.00 with A2780 cells (Homo sapiens, A2780, 72 h) and 8.24 at NAMPT.

For the compound `O=C(NCc1cccnc1)Nc1ccc(S(=O)(=O)NCC2CCCCC2)cc1` [1-{4-[(cyclohexylmethyl)sulfamoyl]phenyl}-3-(pyridin-3-ylmethyl)urea], the pIC50 was 6.74 in the assay on A2780 cells (Homo sapiens, A2780, 72 h) and 8.40 at NAMPT.

Consider `O=C(NCc1cccnc1)Nc1ccc(S(=O)(=O)NCc2ccccn2)cc1` [1-{4-[(pyridin-2-ylmethyl)sulfamoyl]phenyl}-3-(pyridin-3-ylmethyl)urea], for which the pIC50 with A2780 cells (Homo sapiens, A2780, 72 h) is 5.00 to 6.00; on NAMPT, 8.08.

`O=C(NCc1ccc(S(=O)(=O)c2ccccc2)cc1)Nc1ccc2ncccc2c1` [1-{[4-(benzenesulfonyl)phenyl]methyl}-3-(quinolin-6-yl)urea]: the pIC50 with A2780 cells (Homo sapiens, A2780, 72 h) is less than 4.52; at NAMPT, 5.65.

For `CC(C)NC(=O)c1cc(S(=O)(=O)c2ccc(NC(=O)NCc3cccnc3)cc2)ccc1F` [2-fluoro-N-(propan-2-yl)-5-[(4-{[(pyridin-3-ylmethyl)carbamoyl]amino}benzene)sulfonyl]benzamide], the pIC50 was 6.00 to 7.00 in the assay on A2780 cells (Homo sapiens, A2780, 72 h) and 7.68 at NAMPT.

Consider `CC(C)C(=O)NC1CCN(S(=O)(=O)c2ccc(NC(=O)NCc3cccnc3)cc2)CC1` [2-methyl-N-{1-[(4-{[(pyridin-3-ylmethyl)carbamoyl]amino}benzene)sulfonyl]piperidin-4-yl}propanamide], for which the values for the negative logarithm of the IC50 (pIC50) in the assay on A2780 cells and at NAMPT were 6.91 and 8.30, respectively.

With `CC(C)C(=O)Nc1cccc(S(=O)(=O)c2ccc(NC(=O)NCc3cccnc3)cc2)c1` [2-methyl-N-{3-[(4-{[(pyridin-3-ylmethyl)carbamoyl]amino}benzene)sulfonyl]phenylJpropanamide], the pIC50 in the assay on A2780 cells was 8.00; on NAMPT, 8.92.

For `COc1cccc(C2(N3CCN(S(=O)(=O)c4ccc(NC(=O)NCc5cccnc5)cc4)CC3)CCC(C)CC2)c1` (centres unmarked) [3-(4-{4-[1-(3-methoxyphenyl)-4-methylcyclohexyl]piperazine-1-sulfonyl}phenyl)-1-(pyridin-3-ylmethyl)urea], the pIC50 was 8.30 with A2780 cells (Homo sapiens, A2780, 72 h) and 8.40 at NAMPT.

For `O=C(NCc1cccnc1)Nc1ccc(S(=O)(=O)N2CCN(C(=O)Cc3ccc(Cl)c(Cl)c3)CC2)cc1` [3-(4-{4-[2-(3,4-dichlorophenyl)acetyl]piperazine-1-sulfonyl[phenyl)-1-(pyridin-3-ylmethyl)urea], the results for the pIC50 in the assay on A2780 cells and at NAMPT were 5.00 to 6.00 and 8.43, respectively.

Take `CCN(CC)CCN1CCN(S(=O)(=O)c2ccc(NC(=O)NCc3cccnc3)cc2)CC1` [3-(4-{4-[2-(diethylamino)ethyl]piperazine-1-sulfonyl}phenyl)-1-(pyridin-3-ylmethyl)urea]: the pIC50 is 7.64 with A2780 cells (Homo sapiens, A2780, 72 h) and 8.40 at NAMPT.

Regarding `O=C(NCc1cccnc1)Nc1ccc(S(=O)(=O)N2CCN(c3ncc(C(F)(F)F)cc3Cl)CC2)cc1` [3-(4-{4-[3-chloro-5-(trifluoromethyl)pyridin-2-yl]piperazine-1-sulfonyl}phenyl)-1-(pyridin-3-ylmethyl)urea], the pIC50 is 6.89 in the assay on A2780 cells (Homo sapiens, A2780, 72 h) and 8.30 on NAMPT.

Take `O=C(NCc1cccnc1)Nc1ccc(S(=O)(=O)N2CCC(C(=O)c3ccc(F)cc3)CC2)cc1` [3-(4-{4-[(4-fluorophenyl)carbonyl]piperidine-1-sulfonyl}phenyl)-1-(pyridin-3-ylmethyl)urea]: the pIC50 with A2780 cells (Homo sapiens, A2780, 72 h) was 6.69; on NAMPT, 8.00.

On to `O=C(NCc1cccnc1)Nc1ccc(S(=O)(=O)N2CCC(C(=O)N3CCOCC3)CC2)cc1` [3-(4-{4-[(morpholin-4-yl)carbonyl]piperidine-1-sulfonyl}phenyl)-1-(pyridin-3-ylmethyl)urea], for which the pIC50 with A2780 cells (Homo sapiens, A2780, 72 h) was 7.40; on NAMPT it was 8.10.

For the compound `O=C(NCc1cccnc1)Nc1ccc(S(=O)(=O)N2CCN(C(c3ccc(F)cc3)c3ccc(F)cc3)CC2)cc1` [3-(4-{4-[bis(4-fluorophenyl)methyl]piperazine-1-sulfonyl}phenyl)-1-(pyridin-3-ylmethyl)urea], the pIC50 is 8.15 in the assay with A2780 cells (Homo sapiens, A2780, 72 h) and 8.30 at NAMPT.

On to `CN1CCCC2(CCCN(S(=O)(=O)c3ccc(NC(=O)NCc4cccnc4)cc3)C2)C1` (centres unmarked) [3-(4-{8-methyl-2,8-diazaspiro[5.5]undecane-2-sulfonyl}phenyl)-1-(pyridin-3-ylmethyl)urea], for which the pIC50 with A2780 cells (Homo sapiens, A2780, 72 h) was 9.00; at NAMPT, 9.00.

For `O=C(NCc1cccnc1)Nc1ccc(S(=O)(=O)Nc2cccnc2Oc2ccc(F)cc2)cc1` [3-(4-{[2-(4-fluorophenoxy)pyridin-3-yl]sulfamoyl}phenyl)-1-(pyridin-3-ylmethyl)urea], the pIC50 in the assay with A2780 cells (Homo sapiens, A2780, 72 h) was 6.83; at NAMPT, 7.96.

As for `O=C(NCc1cccnc1)Nc1ccc(S(=O)(=O)Nc2ccccc2OC(F)F)cc1` [3-(4-{[2-(difluoromethoxy)phenyl]sulfamoyl}phenyl)-1-(pyridin-3-ylmethyl)urea], the pIC50 is 7.51 with A2780 cells (Homo sapiens, A2780, 72 h) and 9.22 at NAMPT.

Turning to `COCc1ccccc1S(=O)(=O)c1ccc(NC(=O)NCc2cccnc2)cc1` [3-(4-{[2-(methoxymethyl)benzene]sulfonyl}phenyl)-1-(pyridin-3-ylmethyl)urea], the pIC50 in the assay with A2780 cells (Homo sapiens, A2780, 72 h) is 7.41; at NAMPT it was 8.22.

On to `O=C(NCc1cccnc1)Nc1ccc(S(=O)(=O)Nc2cc(C(F)(F)F)ccc2N2CCOCC2)cc1` [3-(4-{[2-(morpholin-4-yl)-5-(trifluoromethyl)phenyl]sulfamoyl}phenyl)-1-(pyridin-3-ylmethyl)urea], for which the pIC50 is 8.15 with A2780 cells (Homo sapiens, A2780, 72 h) and 8.10 on NAMPT.

On to `O=C(NCc1cccnc1)Nc1ccc(S(=O)(=O)Nc2cc(C(F)(F)F)ccc2N2CCCCC2)cc1` [3-(4-{[2-(piperidin-1-yl)-5-(trifluoromethyl)phenyl]sulfamoyl}phenyl)-1-(pyridin-3-ylmethyl)urea], for which the pIC50 in the assay with A2780 cells (Homo sapiens, A2780, 72 h) was 7.66; at NAMPT, 8.30.

As to `CC(C)Oc1ccccc1NS(=O)(=O)c1ccc(NC(=O)NCc2cccnc2)cc1` [3-(4-{[2-(propan-2-yloxy)phenyl]sulfamoyl}phenyl)-1-(pyridin] [3-(4-{[2-(propan-2-yloxy)phenyl]sulfamoyl}phenyl)-1-(pyridin-3-ylmethyl)urea], the values for the pIC50 in the assay on A2780 cells and on NAMPT were 7.82 and 8.70, respectively.

As for `O=C(NCc1cccnc1)Nc1ccc(S(=O)(=O)c2cc(OC(F)(F)F)ccc2Cl)cc1` [3-(4-{[2-chloro-5-(trifluoromethoxy)benzene]sulfonyl}phenyl)-1-(pyridin-3-ylmethyl)urea], the pIC50 with A2780 cells (Homo sapiens, A2780, 72 h) was 6.00 to 7.00; on NAMPT it was 8.20.

Turning to `O=C(NCc1cccnc1)Nc1ccc(S(=O)(=O)c2cc(C(F)(F)F)ccc2Cl)cc1` [3-(4-{[2-chloro-5-(trifluoromethyl)benzene]sulfonyl}phenyl)-1-(pyridin-3-ylmethyl)urea], the pIC50 with A2780 cells (Homo sapiens, A2780, 72 h) was 6.47; at NAMPT, 8.30.

Turning to `O=C(NCc1cccnc1)Nc1ccc(S(=O)(=O)c2ccc(-n3cccn3)cc2F)cc1` [3-(4-{[2-fluoro-4-(1H-pyrazol-1-yl)benzene]sulfonyl}phenyl)-1-(pyridin-3-ylmethyl)urea], the pIC50 with A2780 cells (Homo sapiens, A2780, 72 h) was 7.85; on NAMPT, 9.00.

On to `COc1cc(-n2cccn2)ccc1S(=O)(=O)c1ccc(NC(=O)NCc2cccnc2)cc1` [3-(4-{[2-methoxy-4-(1H-pyrazol-1-yl)benzene]sulfonyl}phenyl)-1-(pyridin-3-ylmethyl)urea], for which the pIC50 is 8.52 with A2780 cells (Homo sapiens, A2780, 72 h) and 8.70 at NAMPT.

As to `COc1ccc(C(C)C)cc1S(=O)(=O)c1ccc(NC(=O)NCc2cccnc2)cc1` [3-(4-{[2-methoxy-5-(propan-2-yl)benzene]sulfonyl}phenyl)-1-(pyridin-3-ylmethyl)urea], the pIC50 in the assay with A2780 cells (Homo sapiens, A2780, 72 h) is 7.51; at NAMPT, 8.52.

With `COc1ccc(C(F)(F)F)cc1S(=O)(=O)c1ccc(NC(=O)NCc2cccnc2)cc1` [3-(4-{[2-methoxy-5-(trifluoromethyl)benzene]sulfonyl}phenyl)-1-(pyridin-3-ylmethyl)urea], the pIC50 in the assay on A2780 cells (Homo sapiens, A2780, 72 h) was 8.48; at NAMPT, 8.85.

On to `Cc1cc(-n2cccn2)ccc1S(=O)(=O)c1ccc(NC(=O)NCc2cccnc2)cc1` [3-(4-{[2-methyl-4-(1H-pyrazol-1-yl)benzene]sulfonyl}phenyl)-1-(pyridin-3-ylmethyl)urea], for which the pIC50 with A2780 cells (Homo sapiens, A2780, 72 h) was 7.68; on NAMPT it was 8.70.

As for `Cc1cc(C(F)(F)F)ccc1S(=O)(=O)c1ccc(NC(=O)NCc2cccnc2)cc1` [3-(4-{[2-methyl-4-(trifluoromethyl)benzene]sulfonyl}phenyl)-1-(pyridin-3-ylmethyl)urea], the pIC50 in the assay with A2780 cells (Homo sapiens, A2780, 72 h) was 6.00 to 7.00; at NAMPT, 7.93.

Take `CC(C)COc1cccc(S(=O)(=O)c2ccc(NC(=O)NCc3cccnc3)cc2)c1` [3-(4-{[3-(2-methylpropoxy)benzene]sulfonyl]phenyl)-1-(pyridin-3-ylmethyl)urea]: the pIC50 with A2780 cells (Homo sapiens, A2780, 72 h) is 6.00 to 7.00; on NAMPT it was 8.48.

As a reminder, the pIC50 is −log10 of the IC50, conventionally taken in molar units.

Values taken from patent US11279687B2, “Compounds and compositions for the inhibition of NAMPT” (Valo Health, Inc., priority 2010, dated 2022).
